Assay results as given in article PMC8545931, “Production and immobilization of β-glucanase from Aspergillus niger with its applications in bioethanol production and biocontrol of phytopathogenic fungi” (Scientific Reports, 2021).
pIC50: −log10 of the molar value.

Biological target: T1, β-glucanase
T1 construct: gene eglA; native secreted enzyme purified from culture supernatant (ammonium sulfate, DEAE-Cellulose, Sephadex G200); 56 kDa on SDS-PAGE; gene not identified; assayed as CMC hydrolysis
Experiment: residual CMC hydrolysis, DNS reducing sugar
Assay type: biochemical, Aspergillus niger
Settings: free enzyme, standard assay 0.5% CMC stock, citrate pH 5.0, 40 °C

CC(O)C(C)O (stereo not shown) [2.3-butanediol]
pIC50 (arginyl reagent, printed as 2,3-butanediol, probably 2,3-butanedione meant): 2.33

CC(=O)n1ccnc1 [N-Acetyl imidazole]
pIC50 (covalent, tyrosyl reagent): 2.05

O=C1CCC(=O)N1Br [N-bromosuccinimide]
pIC50 (covalent, tryptophanyl reagent): 2.19

[Hg+][c]1ccccc1 [phenylmercuric acetate]
pIC50 (covalent, sulfhydryl reagent): 2.26
